Assay results published in patent US20140011814A1, “DIAMINE AND MEGLUMINE SALT FORMS OF FATTY ACIDS” (THETIS PHARMACEUTICALS LLC, priority 2012, published 2014).

Test: Rat oral pharmacokinetics (plasma analyzed for eicosapentaenoic acid)
Conditions: analyte EPA in plasma, oral gavage 40 mg/kg as aqueous solution in 0.5% carboxymethyl cellulose, Sprague-Dawley rats, mean of 6 rats; for AUC (0-24): 0-24 h

Structure (SMILES)	AUC (0-24) [µg·h/mL]	Cmax [ng/mL]	Tmax [h]
CC/C=C\C/C=C\C/C=C\C/C=C\C/C=C\CCCC(=O)O.CC/C=C\C/C=C\C/C=C\C/C=C\C/C=C\CCCC(=O)O.NCCN [Ethylene diamine di-eicosapentaenoate, Ethane-1,2-diaminium di[5Z,8Z,11Z,14Z,17Z)-icosa-5,8,11,14,17-pentaenoate]]	275.29	18370	2.0
C1CNCCN1.CC/C=C\C/C=C\C/C=C\C/C=C\C/C=C\CCCC(=O)O.CC/C=C\C/C=C\C/C=C\C/C=C\C/C=C\CCCC(=O)O [Piperazine di-eicosapentaenoate, Bis[5Z,8Z,11Z,14Z,17Z)-icosa-5,8,11,14,17-pentaenoate]piperazine salt]	134.85	28220	1.0
